PubChem BioAssay AID256 (DTP/NCI, 2004)
Inconclusive results and toxic doses are left out. How the source made its calls: active means survival T/C of 150% or more; inactive means T/C below 125% in these data.

System: CD2F1 mice, L1210 leukemia ip, survival T/C
Assay: NCI In Vivo Anticancer Drug Screen. Data for tumor model L1210 Leukemia (intraperitoneal) in CD2F1 (CDF1) mice
Conditions: higher = longer survival
Method in brief: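 Tumor-bearing mice (transplanted tumor) were split into treated and vehicle control groups, and the measured endpoint of each treated group was divided by that of its vehicle controls.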

[1] = endpoint: mean survival time, dose: 100.0 mg/kg/injection, schedule: Q01DX009 (ip), vehicle: saline with Tween-80
[2] = endpoint: mean survival time, dose: 200.0 mg/kg/injection, schedule: Q01DX009 (ip), vehicle: saline with Tween-80
[3] = endpoint: mean survival time, dose: 100.0 mg/kg/injection, schedule: Q04DX002 (ip), vehicle: saline with Tween-80
[4] = endpoint: mean survival time, dose: 200.0 mg/kg/injection, schedule: Q04DX002 (ip), vehicle: saline with Tween-80
[5] = endpoint: mean survival time, dose: 100.0 mg/kg/injection, schedule: Q04DX003 (ip), vehicle: saline with Tween-80
[6] = endpoint: mean survival time, dose: 200.0 mg/kg/injection, schedule: Q04DX003 (ip), vehicle: saline with Tween-80
[7] = endpoint: mean survival time, dose: 400.0 mg/kg/injection, schedule: Q04DX003 (ip), vehicle: saline with Tween-80

Measured: T/C

COc1cccc(/C=N/NC(=O)c2ccccc2N2CCCC2)c1O
inactive: endpoint: mean survival time, dose: 12.5 mg/kg/injection, schedule: Q01DX009 (ip), vehicle: olive oil, sesame oil, peanut oil 104 % of control | endpoint: mean survival time, dose: 25.0 mg/kg/injection, schedule: Q01DX009 (ip), vehicle: olive oil, sesame oil, peanut oil 96 % of control | endpoint: mean survival time, dose: 50.0 mg/kg/injection, schedule: Q01DX009 (ip), vehicle: olive oil, sesame oil, peanut oil 102 % of control | endpoint: mean survival time, dose: 100.0 mg/kg/injection, schedule: Q01DX009 (ip), vehicle: olive oil, sesame oil, peanut oil 94 % of control | endpoint: mean survival time, dose: 200.0 mg/kg/injection, schedule: Q01DX009 (ip), vehicle: olive oil, sesame oil, peanut oil 96 % of control

Oc1ccccc1-c1ccccc1
inactive: endpoint: mean survival time, dose: 50.0 mg/kg/injection, schedule: Q01DX009 (ip), vehicle: saline with Tween-80 98 % of control | [1] 98 % of control | [2] 98 % of control

[Co+3].[NH-]CC[NH-].[NH-]CC[NH-].[NH-]CC[NH-].[O-][I+2]([O-])O
inactive: [3] 100 % of control | [4] 96 % of control

Cc1ccc(S(=O)(=O)Oc2cc([N+](=O)[O-])ccc2N)cc1
inactive: endpoint: mean survival time, dose: 100.0 mg/kg/injection, schedule: Q04DX003 (ip), vehicle: saline 95 % of control | endpoint: mean survival time, dose: 200.0 mg/kg/injection, schedule: Q04DX003 (ip), vehicle: saline 100 % of control | endpoint: mean survival time, dose: 400.0 mg/kg/injection, schedule: Q04DX003 (ip), vehicle: saline 103 % of control

CC(/C=C/C1OC(=O)C=CC1C)=C\C(C)C/C=C/C(C)=C/C(C)C(=O)C(C)C(O)C(C)C/C(C)=C/C(=O)O (centres undefined)
inactive: endpoint: median survival time, dose: 9.0 micrograms/kg/injection, schedule: Q01DX009 (ip), vehicle: saline + alcohol 106 % of control | endpoint: median survival time, dose: 15.0 micrograms/kg/injection, schedule: Q01DX009 (ip), vehicle: saline + alcohol 119 % of control | endpoint: median survival time, dose: 18.0 micrograms/kg/injection, schedule: Q01DX005 (ip), vehicle: alcohol 110 % of control | endpoint: median survival time, dose: 18.0 micrograms/kg/injection, schedule: Q01DX005 (ip), vehicle: saline + alcohol 106 % of control | endpoint: median survival time, dose: 25.0 micrograms/kg/injection, schedule: Q01DX009 (ip), vehicle: saline + alcohol 117 % of control | endpoint: median survival time, dose: 30.0 micrograms/kg/injection, schedule: Q01DX005 (ip), vehicle: alcohol 110 % of control | endpoint: median survival time, dose: 30.0 micrograms/kg/injection, schedule: Q01DX005 (ip), vehicle: saline + alcohol 107 % of control | endpoint: median survival time, dose: 50.0 micrograms/kg/injection, schedule: Q01DX005 (ip), vehicle: alcohol 115 % of control | endpoint: median survival time, dose: 50.0 micrograms/kg/injection, schedule: Q01DX005 (ip), vehicle: saline + alcohol 108 % of control | endpoint: median survival time, dose: 83.33 micrograms/kg/injection, schedule: Q01DX005 (ip), vehicle: alcohol 115 % of control | endpoint: median survival time, dose: 83.33 micrograms/kg/injection, schedule: Q01DX005 (ip), vehicle: saline + alcohol 116 % of control | endpoint: median survival time, dose: 138.89 micrograms/kg/injection, schedule: Q01DX005 (ip), vehicle: alcohol 122 % of control | endpoint: median survival time, dose: 138.89 micrograms/kg/injection, schedule: Q01DX005 (ip), vehicle: saline + alcohol 111 % of control

CC1(C)OC2C(CN=[N+]=[N-])OC(n3cnc4c(=O)[nH]c(N)nc43)C2O1 (centres undefined)
inactive: endpoint: mean survival time, dose: 100.0 mg/kg/injection, schedule: Q01DX001 (ip), vehicle: Klucel (hydroxypropylcellulose) (HPC) 109 % of control | endpoint: mean survival time, dose: 200.0 mg/kg/injection, schedule: Q01DX001 (ip), vehicle: Klucel (hydroxypropylcellulose) (HPC) 97 % of control | endpoint: mean survival time, dose: 400.0 mg/kg/injection, schedule: Q01DX001 (ip), vehicle: Klucel (hydroxypropylcellulose) (HPC) 97 % of control

CN(C)C(=O)Nc1ccc(Br)cc1
inactive: [3] 86 % of control | [4] 93 % of control | endpoint: mean survival time, dose: 400.0 mg/kg/injection, schedule: Q04DX002 (ip), vehicle: saline with Tween-80 93 % of control

O=C1c2ccccc2C(=O)N1CCO
inactive: [5] 106 % of control | [6] 108 % of control | [7] 110 % of control

CC(Br)C(C)Br (centres undefined)
inactive: endpoint: mean survival time, dose: 50.0 mg/kg/injection, schedule: Q01DX009 (ip), vehicle: saline 103 % of control | endpoint: mean survival time, dose: 100.0 mg/kg/injection, schedule: Q01DX009 (ip), vehicle: saline 95 % of control | endpoint: mean survival time, dose: 200.0 mg/kg/injection, schedule: Q01DX009 (ip), vehicle: saline 100 % of control

C(=N\Nc1nc2ccccc2o1)/c1ccncc1
inactive: endpoint: mean survival time, dose: 100.0 mg/kg/injection, schedule: Q04DX003 (ip), vehicle: Klucel (hydroxypropylcellulose) (HPC) 103 % of control | endpoint: mean survival time, dose: 200.0 mg/kg/injection, schedule: Q04DX003 (ip), vehicle: Klucel (hydroxypropylcellulose) (HPC) 95 % of control | endpoint: mean survival time, dose: 400.0 mg/kg/injection, schedule: Q04DX003 (ip), vehicle: Klucel (hydroxypropylcellulose) (HPC) 101 % of control

NNC(=O)c1cccc(C(=O)NN)c1
inactive: [1] 96 % of control | [5] 93 % of control | [2] 93 % of control | [6] 95 % of control | endpoint: mean survival time, dose: 400.0 mg/kg/injection, schedule: Q01DX009 (ip), vehicle: saline with Tween-80 98 % of control | [7] 92 % of control

CCCC(C#N)(CCC)C(=O)OCC
inactive: endpoint: mean survival time, dose: 12.5 mg/kg/injection, schedule: Q01DX001 (ip), vehicle: Klucel (hydroxypropylcellulose) (HPC) 102 % of control | endpoint: mean survival time, dose: 25.0 mg/kg/injection, schedule: Q01DX001 (ip), vehicle: Klucel (hydroxypropylcellulose) (HPC) 99 % of control | endpoint: mean survival time, dose: 50.0 mg/kg/injection, schedule: Q01DX001 (ip), vehicle: Klucel (hydroxypropylcellulose) (HPC) 99 % of control

COc1ccc2c(c1)OC(OC)(c1ccc(OC)c(OC)c1)C(O)(OC)C2=O (centres undefined)
inactive: endpoint: mean survival time, dose: 50.0 mg/kg/injection, schedule: Q01DX001 (ip), vehicle: saline 102 % of control | endpoint: mean survival time, dose: 100.0 mg/kg/injection, schedule: Q01DX001 (ip), vehicle: saline 98 % of control | endpoint: mean survival time, dose: 200.0 mg/kg/injection, schedule: Q01DX001 (ip), vehicle: saline 98 % of control | endpoint: mean survival time, dose: 400.0 mg/kg/injection, schedule: Q01DX001 (ip), vehicle: saline 96 % of control
